{"source": "ChEMBL document CHEMBL1201862", "about": "“PubChem BioAssay data set” (2004)", "key": {"[1]": {"target": "Paired box protein Pax-8 (Homo sapiens, UniProt Q06710)", "sequence (Q06710 whole entry)": "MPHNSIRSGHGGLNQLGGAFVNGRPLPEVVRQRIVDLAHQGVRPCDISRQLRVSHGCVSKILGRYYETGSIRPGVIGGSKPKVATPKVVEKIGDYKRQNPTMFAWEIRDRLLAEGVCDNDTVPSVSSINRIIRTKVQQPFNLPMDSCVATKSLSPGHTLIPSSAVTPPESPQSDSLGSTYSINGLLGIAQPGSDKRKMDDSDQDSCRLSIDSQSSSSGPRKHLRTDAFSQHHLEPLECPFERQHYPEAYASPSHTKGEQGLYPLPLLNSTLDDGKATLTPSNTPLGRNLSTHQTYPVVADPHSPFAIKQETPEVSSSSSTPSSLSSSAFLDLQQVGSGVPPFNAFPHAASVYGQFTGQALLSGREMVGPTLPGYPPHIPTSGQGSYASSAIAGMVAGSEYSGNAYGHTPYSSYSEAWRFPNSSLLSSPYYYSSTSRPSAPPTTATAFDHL", "test": "PAX8 transcriptional activity inhibition in RMG-I – RMG-I cells, luciferase, cherry-pick, dose response (AID 687027);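 note: luciferase reporter driven by Pax8 target thyroperoxidase promoter measured by SteadyGlo luminescence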", "type": "functional, cell-based"}, "[2]": {"target": "T1, Ubiquitin-conjugating enzyme E2 N (Homo sapiens, UniProt P61088)", "T1 sequence (P61088 whole entry)": "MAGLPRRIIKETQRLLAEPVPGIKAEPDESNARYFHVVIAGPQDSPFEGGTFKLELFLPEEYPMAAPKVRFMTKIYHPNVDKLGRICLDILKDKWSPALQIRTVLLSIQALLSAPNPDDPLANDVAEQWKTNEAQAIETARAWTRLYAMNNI", "type": "functional"}, "[3]": {"test": "general cell-killing toxicity readout – plate reader, dry powder samples, cytotoxicity control for PAX8 inhibitor project, dose response (AID 743021)", "type": "functional, cell-based"}, "[4]": {"test": "MITF Orthogonal Assay: SK-MEL-5 CTG Assay Measured in Cell-Based System Using Plate Reader - 2084-02_Inhibitor_Dose_DryPowder_Activity_Set7.", "type": "functional"}, "[5]": {"test": "MITF: Counter assay: A375 proliferation Measured in Cell-Based System Using Plate Reader - 2084-03_Inhibitor_Dose_DryPowder_Activity_Set8.", "type": "functional", "conditions": "A-375"}, "[6]": {"test": "cells", "type": "functional, cell-based"}, "[7]": {"target": "T2, Trace amine-associated receptor 1 (Homo sapiens, UniProt Q96RJ0)", "T2 sequence (Q96RJ0 whole entry)": "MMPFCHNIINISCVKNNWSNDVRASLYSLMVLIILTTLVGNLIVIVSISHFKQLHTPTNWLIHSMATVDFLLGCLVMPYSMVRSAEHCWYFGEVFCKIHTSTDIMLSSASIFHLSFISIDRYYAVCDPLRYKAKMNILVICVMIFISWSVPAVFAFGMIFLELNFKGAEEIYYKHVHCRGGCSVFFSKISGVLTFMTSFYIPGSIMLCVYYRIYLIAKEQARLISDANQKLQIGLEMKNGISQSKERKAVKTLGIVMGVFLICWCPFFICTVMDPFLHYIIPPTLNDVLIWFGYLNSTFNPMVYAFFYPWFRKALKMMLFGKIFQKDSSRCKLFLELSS", "test": "Fluorescence-based cell-based high throughput dose response assay to identify agonists of the human trace amine associated receptor 1 (TAAR1).", "type": "functional"}, "[8]": {"target": "T2, Trace amine-associated receptor 1", "test": "Counterscreen for agonists of the human trace amine associated receptor 1 (hTAAR1): Fluorescence-based cell-based high throughput dose response assay to identify hTAAR1 agonist that also desensitize TAAR1 receptor response.", "type": "functional"}, "[9]": {"test": "cells", "type": "functional, cell-based", "remark": "listed apart in the source"}, "[10]": {"test": "IGROV1 cell killing – plate reader, dry powder samples, PAX8 inhibitor project, dose response (AID 743043)", "type": "functional, cell-based", "conditions": "IGROV-1"}, "[11]": {"test": "OVCAR-3 cell viability loss – plate reader, dry powder samples, PAX8 inhibitor project, dose response (AID 743044)", "type": "functional, cell-based"}, "[12]": {"test": "OVCAR8 cell viability loss – plate reader, dry powder samples, PAX8 project, dose response (AID 743197)", "type": "functional, cell-based", "conditions": "OVCAR-8"}, "[13]": {"target": "Tyrosyl-DNA phosphodiesterase 2 (Homo sapiens, UniProt O95551)", "sequence (O95551 whole entry)": "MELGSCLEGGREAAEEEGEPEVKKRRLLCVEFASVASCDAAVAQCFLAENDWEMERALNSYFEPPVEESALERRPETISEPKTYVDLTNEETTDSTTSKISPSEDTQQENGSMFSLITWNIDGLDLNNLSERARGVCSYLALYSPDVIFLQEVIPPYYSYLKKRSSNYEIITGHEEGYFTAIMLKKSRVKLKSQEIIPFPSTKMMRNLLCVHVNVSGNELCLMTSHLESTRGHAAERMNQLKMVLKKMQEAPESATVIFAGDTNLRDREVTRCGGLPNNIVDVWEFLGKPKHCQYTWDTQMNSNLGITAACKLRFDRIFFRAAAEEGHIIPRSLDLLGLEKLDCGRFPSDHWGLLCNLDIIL", "test": "potency against TDP2 phosphodiesterase activity – biochemical, epi absorbance, IC50, dose response (AID 743297)"}, "[14]": {"target": "T3, Mannose-6-phosphate isomerase (Homo sapiens, UniProt P34949)", "T3 sequence (P34949 whole entry)": "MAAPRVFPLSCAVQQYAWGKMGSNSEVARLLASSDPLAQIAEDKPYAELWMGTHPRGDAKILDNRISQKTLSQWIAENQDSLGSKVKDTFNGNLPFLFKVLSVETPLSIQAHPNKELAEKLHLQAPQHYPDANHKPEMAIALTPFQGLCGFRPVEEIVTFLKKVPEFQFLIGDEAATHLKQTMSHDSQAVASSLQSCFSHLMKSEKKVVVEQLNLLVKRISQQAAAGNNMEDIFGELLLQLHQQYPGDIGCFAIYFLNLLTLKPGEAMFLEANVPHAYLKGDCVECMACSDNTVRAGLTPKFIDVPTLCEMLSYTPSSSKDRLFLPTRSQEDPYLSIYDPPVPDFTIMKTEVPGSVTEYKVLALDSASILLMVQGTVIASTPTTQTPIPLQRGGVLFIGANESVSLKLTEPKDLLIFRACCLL", "test": "MPI inhibition at elevated mannose 6-phosphate – biochemical, fluorescence intensity, high mannose 6-phosphate, primary screen (AID 1220)"}}, "note": "Calls of active or inactive are those of the source.", "data": [{"smiles": "CCC[C@@H](CN[C@@H](CNC)[C@H](C)CC)NCC1CCC(C(C)(C)C)CC1", "note": "(stereo not given in full)", "values": [{"measurement": "AC50", "setting": "[1]", "result": "14.4 µM (active)"}, {"measurement": "IC50", "setting": "[2]", "result": "> 20 µM (inactive)"}, {"measurement": "AC50", "setting": "[3]", "result": "37.7 µM (active)"}]}, {"smiles": "COc1ccc(NC2=CC(=O)c3ccccc3C2=O)cc1", "values": [{"measurement": "AC50", "setting": "[4]", "result": "0.838 µM (active)"}, {"measurement": "AC50", "setting": "[5]", "result": "> 70 µM (inactive)"}]}, {"smiles": "CC(C)=C1C2CCC1C(C(=O)NCCc1ccccc1)C2C(=O)O", "note": "(stereo not given)", "values": [{"measurement": "IC50", "setting": "[6]", "result": "> 29.9 µM (inactive)"}, {"measurement": "EC50", "setting": "[7]", "result": "0.189 µM (active)"}, {"measurement": "IC50", "setting": "[8]", "result": "2.42 µM (active)"}, {"measurement": "EC50", "setting": "[9]", "result": "> 29.9 µM (inactive)"}]}, {"smiles": "C[C@@H]1CN([C@H](C)CO)C(=O)c2cc(NC(=O)CCC(F)(F)F)ccc2O[C@@H](C)CCCCO[C@@H]1CN(C)Cc1ccc(Cl)c(Cl)c1", "values": [{"measurement": "AC50", "setting": "[1]", "result": "7.47 µM (active)"}, {"measurement": "AC50", "setting": "[10]", "result": "45.7 µM (active)"}, {"measurement": "AC50", "setting": "[11]", "result": "33.3 µM (active)"}, {"measurement": "AC50", "setting": "[12]", "result": "61 µM (active)"}]}, {"smiles": "Nn1cnnc1N/N=C\\c1ccc(-c2ccccc2[N+](=O)[O-])o1", "values": [{"measurement": "IC50", "setting": "[13]", "result": "> 128 µM (inactive)"}, {"measurement": "IC50", "setting": "[14]", "result": "> 50 µM (not active)"}]}]}
